The source of these data is patent publication US7416741B2, “Copper lowering treatment of inflammatory and fibrotic diseases” (The Regents of the University of Michigan, priority 2002, dated 2008).

The subject of data set [1] is carbon tetrachloride (CT) mouse model. Nature of the data set: Serum ALT in the carbon tetrachloride (CT) mouse model of liver damage. Format: in vivo. To be noted: Ex 6; TM from week 5; sacrifice week 12; p<0.0008; protection only partial. As to the method: The carbon tetrachloride (CT) mouse model produces much more liver fibrosis (cirrhosis) than the Con A model. In this model carbon tetrachloride is injected intraperitoneally twice weekly, and after 12 weeks, a well-established cirrhosis should be present. This can be evaluated histologically, and can be quantitated by measuring liver hydroxyproline, a major amino acid in collagen. The TM was started in TM treated animals at the beginning of week 5 and the animals were sacrificed at week 12.
There were 4 animals in the CT group, 4 in the CT/TM group, 2 in the olive oil/TM group, and 1 in the TM group. Since there were so few animals in the last two groups, and since their data were generally similar, they were combined.

The subject of a further data set is sheep. To be noted: cited from earlier work.
For data set [2], the system named is vascular endothelial growth factor (VEGF). Briefly: Retinopathy of prematurity in newborn mice. Format: in vivo, mouse. To be noted: hyperoxia then room air. The procedure:
The present invention also contemplates the antiangiogenic therapeutic effects of TM in diseases of neovascularization besides cancer (e.g., animal models of retinopathy). In retinopathy of prematurity, newborn mice exposed to hyperoxia for five days develop a marked retinopathy after four days exposure to room air, with a peak of a major angiogenic stimulus, vascular endothelial growth factor (VEGF), at 24 hours.

In the next data set the test system is Con A mouse model. Nature of the data set: Liver histological examination in the Con A mouse model. Format: in vivo. To be noted: Ex 4; Con A mice. The procedure:
A study was carried out in a mouse model of concanavilin A (Con A) production of liver cirrhosis. There were four experimental groups of several mice each. […] The Con A was injected intravenously once weekly into mice (0.3 mg/mouse/week), and produced a hepatitis, which is manifested by an increasing level of alanine transaminase (ALT) enzymes in the blood. The TM was given once daily by […] in a dose of 0.7 mg/mouse/day beginning 7 days prior to ConA treatment. During days 9 to 11 after Con A, the TM-treated mice received 1.2 mg of TM daily, to ensure adequate lowering of copper levels, and then received 0.7 mg daily for the duration of the study. A blood sample was obtained 28 days after ConA treatment, and the mice were sacrificed on the same day. Serum alanine transaminase (ALT) was measured in Sigma-Frankel (SF) units, where one unit is the formation of 0.000482 umoles of glutamate/minute at pH 7.5 and 25 ° C.

Data set [3] concerns Wilson's disease patients. Briefly: Open label study of TM for initial treatment of neurologically presenting Wilson's disease patients. Format: in vivo, human. From the text:
The results in the first patient studied can be used to illustrate several points. For the first seven days, the patient received TM only with meals (tid with meals). This produced the immediate negative copper balance one would expect from the first mechanism of action (blockade of copper absorption when given with meals). After the first seven days, TM was given between meals as well (tid with meals, and tid between meals). This led to the immediate rise in plasma copper expected from absorption of TM into the blood, and formation of a complex of copper, TM, and albumin. The copper complexed with TM and albumin is unavailable for cellular uptake, and this copper is therefore non-toxic. There is a 1:1 stochiometric relationship between molybdenum and copper in this complex. Knowing the molybdenum level in the blood, and the ceruloplasmin level (ceruloplasmin also contains copper that is non-toxic), one can calculate how much of the plasma copper is not bound to one or the other. This so-called “free copper” (non-ceruloplasmin plasma copper) is the potentially toxic copper. When reduced to zero, the plasma copper-molybdenum “gap” is closed. This took 16 days in the first patient (9 days after adding the between meal doses). Since in the brain (and in other organs), free copper is in equilibrium with the blood, decreasing the blood free copper to a low level begins the process of lowering the brain level of free (toxic) copper.
The inventors have treated initially 56 Wilson's disease patients with TM, all of whom presented with neurological or psychiatric disease, in an open label study. These patients were all diagnosed by standard criteria. […] Some of them were treated briefly with other agents prior to this trial. Two patients had psychiatric but not neurological symptoms.
With three exceptions in the earliest part of the study, all patients received a dose of 20 mg tid with meals, or qid with three meals and a snack. Thus, the only difference between a patient receiving 120 mg and 140 mg total dose is that the former was receiving 20 mg tid, or 60 mg, with meals, and the latter was receiving 20 mg qid, or 80 mg with meals plus a snack. The rest of the total daily dose was divided up into three equal doses and given between meals.
Measuring trichloracetic acid (TCA) soluble copper of the plasma is somewhat useful in assessing the impact of TM therapy on copper metabolism in Wilson's disease. Generally, a high proportion of plasma copper in these patients is TCA soluble (it averaged 56% in patients which is 27 p.g/dl). All of the non-ceruloplasmin plasma copper is TCA soluble, and a somewhat variable portion of the ceruloplasmin copper is also TCA soluble. Because the ceruloplasmin levels are usually rather low in Wilson's disease, most of the plasma copper is TCA soluble. The copper in the TM/albumin/copper complex in the blood is TCA insoluble. Thus, as therapy proceeds, the fraction of the plasma copper that is TCA soluble becomes smaller. […] The TCA soluble fraction cannot be used as an absolute endpoint, for example attempting to reduce it to zero, because a small and somewhat variable soluble fraction is usually present due to plasma ceruloplasmin. However, the significant mean reduction from 27 to 15 p.g/dl illustrates the beneficial effect that TM therapy has on the status of the potentially toxic plasma copper in these patients. Further evidence of the desirable impact of TM therapy on copper metabolism is shown by reduction of mean urine copper values during the latter part of TM therapy, compared to baseline values.
TM has a quick and favorable impact on copper metabolism, reducing the levels of potentially toxic copper of the blood and as contemplated the rest of the body as well. The primary clinical objective in treatment of Wilson's disease is to gain control over copper toxicity while not allowing worsening of the disease or symptoms. […]

Setting [4] is: among the seven anemia patients.

Each structure is given as a SMILES string.

For `[SH-].[SH-].[S]=[Mo]=[S]` [TM, tetrathiomolybdate], in data set [1], the “serum ALT, CT/TM group mean vs CT group” value is given as “significantly lower”. Moreover, in the data set with sheep (copper loaded sheep, 50 or 100 mg 2×weekly for up to 11 weeks), the “tolerability of intravenous TM” value was “tolerated up to 22 injections of TM without clinical problems”. For the same compound, the adverse side effects entry in the data set with sheep (prophylactic use in commercial sheep flocks, over 400 animals) was “no adverse side effects”. In data set [2], the VEGF peak result is “strong inhibition” and the retinal neovascularization entry is “dramatic reduction”. For the same compound, the “histological examination: inflammation and early bridging fibrosis” value in the data set on Con A mouse model is listed as “not in the TM treated animals”. In addition, in data set [3] (56 patients), the “patients with reversible anemia/bone marrow depression” value is listed as “seven”. Besides, the “patients with elevation of transaminase values (serum AST and ALT)” value in data set [3] (all treated with 150 mg TM/day or higher) is “four of the patients”. Moreover, in data set [3] (setting [4]), the “patients with reduction in platelet count” value is reported as “Three of the patients” and the “patients with reduction in white blood cell count” value is “four of the patients”. In data set [3] (average in the seven anemia patients), this compound returned a fall in hemoglobin of 3.4%. Moreover, the overtreatment incidence in data set [3] (dose of 180 mg/day or over) is reported as 6 of 37. Moreover, the overtreatment incidence in data set [3] (dose of 150 or lower) is given as 1 of 13. Moreover, in data set [3] (during weeks of TM administration, two patients), the “patients with change of more than 5 units in quantitative neurological exam (significant worsening)” value was determined as 4%. Moreover, in data set [3] (first patient, TM tid with meals, from day 7 also tid between meals), the “time to close the plasma copper-molybdenum gap (free copper reduced to zero)” value came to 16 days. Besides, the “quantitative speech exam scores” value in data set [3] (initial 8 weeks of TM therapy) is given as “No patient shows significant (more than 2.0 units) reduction in scores”.
